Holding throughout (format): cell-based
The test system of one assay is Klebsiella pneumoniae. Description: MIC by NCCLS reference broth microdilution, 450 respiratory tract pathogens. Conditions: for MIC50 / MIC90: Klebsiella pneumoniae.
Another assay concerns Haemophilus influenzae. The description is as above. Conditions: Haemophilus influenzae; for MIC90: read-out: MIC90.
In another assay the test system is Moraxella catarrhalis. Described as above.
Another assay relates to Staphylococcus aureus. The description is as above.
For the next assay, the system named is Streptococcus pneumoniae. Description: MIC by agar dilution (NCCLS), 411 isolates Buenos Aires 1998-99. Conditions: S. pneumoniae.
The mark [1] stands for this setting: extended spectrum β-lactamase negative (n = 30).
Where [2] appears, read: extended spectrum β-lactamase positive (n = 20).
[3] abbreviates: Haemophilus influenzae (n = 100).
Setting [4] is: β-lactamase positive and erythromycin resistant (n = 10).

≈ marks a conversion by molar mass, not a printed value. Read-outs that look alike come from different tables or passages of the source.

In the case of `COc1c(N2C[C@@H]3CCCN[C@@H]3C2)c(F)cc2c(=O)c(C(=O)O)cn(C3CC3)c12` [Moxifloxacin, moxifloxacin], the “MIC Range” value was 0.015 to 1 µg/mL in the assay with Klebsiella pneumoniae (Klebsiella pneumoniae (n = 50)), 0.015 to 0.5 µg/mL against Klebsiella pneumoniae (setting [1]) and 0.06 to 1 µg/mL in the assay with Klebsiella pneumoniae (setting [2]). For the same compound, the MIC50 came to 0.06 µg/mL (≈ 0.149 µM) with Klebsiella pneumoniae (Klebsiella pneumoniae (n = 50)); 0.06 µg/mL (≈ 0.149 µM) with Klebsiella pneumoniae (setting [1]); 0.5 µg/mL (≈ 1.25 µM) against Klebsiella pneumoniae (setting [2]); 0.03 µg/mL (≈ 0.0747 µM) against Haemophilus influenzae (setting [3]); 0.03 µg/mL (≈ 0.0747 µM) against Haemophilus influenzae (β-lactamase negative (n = 80)); 0.015 µg/mL (≈ 0.0374 µM) against Haemophilus influenzae (β-lactamase positive (n = 20)). Besides, the MIC50 in the assay with Moraxella catarrhalis (Moraxella catarrhalis (n = 50)) worked out at 0.06 µg/mL (≈ 0.149 µM); against Moraxella catarrhalis (β-lactamase negative (n = 13)), 0.015 µg/mL (≈ 0.0374 µM); in the assay on Moraxella catarrhalis (β-lactamase positive (n = 37)), 0.03 µg/mL (≈ 0.0747 µM); with Staphylococcus aureus (Staphylococcus aureus (n = 50)), 0.25 µg/mL (≈ 0.623 µM); in the assay on Staphylococcus aureus (β-lactamase negative (n = 20)) it was 0.25 µg/mL (≈ 0.623 µM); in the assay on Staphylococcus aureus (β-lactamase positive (n = 20)) it was 0.25 µg/mL (≈ 0.623 µM). The compound further had an MIC50 in the assay with Staphylococcus aureus (setting [4]) of 0.25 µg/mL (≈ 0.623 µM). Moreover, the MIC90 in the assay on Klebsiella pneumoniae (Klebsiella pneumoniae (n = 50)) came to 0.5 µg/mL (≈ 1.25 µM); with Klebsiella pneumoniae (setting [1]), 0.25 µg/mL (≈ 0.623 µM); against Klebsiella pneumoniae (setting [2]) it was 1 µg/mL (≈ 2.49 µM); in the assay on Haemophilus influenzae (setting [3]) it was 0.06 µg/mL (≈ 0.149 µM); in the assay with Haemophilus influenzae (β-lactamase negative (n = 80)), 0.06 µg/mL (≈ 0.149 µM); with Haemophilus influenzae (β-lactamase positive (n = 20)) it was 0.015 µg/mL (≈ 0.0374 µM). In addition, the MIC90 with Moraxella catarrhalis (Moraxella catarrhalis (n = 50)) came to 0.06 µg/mL (≈ 0.149 µM); with Moraxella catarrhalis (β-lactamase negative (n = 13)), 0.06 µg/mL (≈ 0.149 µM); against Moraxella catarrhalis (β-lactamase positive (n = 37)), 0.06 µg/mL (≈ 0.149 µM); against Staphylococcus aureus (Staphylococcus aureus (n = 50)) it was 0.5 µg/mL (≈ 1.25 µM); in the assay with Staphylococcus aureus (β-lactamase negative (n = 20)), 0.5 µg/mL (≈ 1.25 µM); in the assay on Staphylococcus aureus (β-lactamase positive (n = 20)), 0.5 µg/mL (≈ 1.25 µM). For the same compound, the MIC90 against Staphylococcus aureus (setting [4]) amounted to 0.5 µg/mL (≈ 1.25 µM). The MIC with Haemophilus influenzae (setting [3]) is 0.0075 to 0.12 µg/mL (≈ 0.0187 to 0.299 µM); against Haemophilus influenzae (β-lactamase negative (n = 80)) it was 0.0075 to 0.06 µg/mL (≈ 0.0187 to 0.149 µM); in the assay with Haemophilus influenzae (β-lactamase positive (n = 20)) it was 0.0075 to 0.06 µg/mL (≈ 0.0187 to 0.149 µM); against Moraxella catarrhalis (Moraxella catarrhalis (n = 50)), 0.00375 to 0.12 µg/mL (≈ 0.00934 to 0.299 µM); in the assay with Moraxella catarrhalis (β-lactamase negative (n = 13)), 0.00375 to 0.12 µg/mL (≈ 0.00934 to 0.299 µM); in the assay with Moraxella catarrhalis (β-lactamase positive (n = 37)), 0.00375 to 0.12 µg/mL (≈ 0.00934 to 0.299 µM). In addition, the MIC against Staphylococcus aureus (Staphylococcus aureus (n = 50)) was in the range of 0.015 to 0.5 µg/mL (≈ 0.0374 to 1.25 µM); with Staphylococcus aureus (β-lactamase negative (n = 20)), 0.06 to 0.5 µg/mL (≈ 0.149 to 1.25 µM); in the assay with Staphylococcus aureus (β-lactamase positive (n = 20)) it was 0.12 to 0.5 µg/mL (≈ 0.299 to 1.25 µM); in the assay with Staphylococcus aureus (setting [4]), 0.12 to 0.5 µg/mL (≈ 0.299 to 1.25 µM).
Regarding amoxycillin/clavulanate, the MIC90 was 1 µg/mL against Streptococcus pneumoniae (Penicillin intermediate (n = 17)), 1 µg/mL against Streptococcus pneumoniae (Penicillin resistant (n = 4)) and 0.016 µg/mL with Streptococcus pneumoniae (Penicillin susceptible (n = 69)).
